In patent publication US11932633B2, “KRas G12C inhibitors” (Mirati Therapeutics, Inc., priority 2018, dated 2024):
Where a name gives a salt, the structure may show the parent alone.

How the values were obtained:
KRas G12C [1] = biological target: T1, KRas G12C (Homo sapiens, UniProt P01116, C118S/C51S/C80L/G12C); test: KRas G12C Modification Assay (LCMS detection of covalent adduct); type: binding; conditions: 5 μM concentration for 3 hours
T1 construct: GDP-loaded K-Ras (1-169) G12C, C51S, C80L, C118S
Experimental: This Example illustrates that exemplary compounds of the present invention covalently bind to KRas G12C using a LCMS assay to detect a covalent adduct of the exemplary compound and KRAS G12C.
The protein concentration of GDP-loaded K-Ras (1-169) G12C, C51S, C80L, C118S and GTP-loaded K-Ras (1-169) G12C, C51S, C80L, C118S, Q61H was adjusted to 2 μM in K-Ras Assay Buffer (25 mM HEPES, 150 mM NaCl, 5 mM MgCl2, and 10 mM Octyl β-glucopyranoside at pH 7.5). A 10 μL aliquot of each protein solution was transferred to a 384 well microtiter plate. Initial compound stocks were generated at fifty times their desired final assay concentration in DMSO.
Exemplary compounds of formula (I) were diluted 25-fold into K-Ras Assay Buffer to a final of two times their final concentration. A 10 μL aliquot of each diluted compound solution was added to each of the protein solutions in the microtiter plate to initiate reaction. Typical final compound concentrations were 3.0, 5.0 and 25.0 μM. At each time point, the reactions were quenched with 20 μL of a 25 mM acetic acid solution. Usual assay endpoints were 15, 180 and 1440 minutes. Once all reactions were quenched, the plates were heat sealed and the samples were injected into a LC/MS system for data acquisition.
Data collection took place on an Agilent 6520 Q-TOF Accurate Mass Spectrometer. Samples were injected in their liquid phase onto a C-3 reverse phase column to remove assay buffer and prepare the samples for mass spectrometer. The proteins were eluted from the column using an acetonitrile gradient and fed directly into the mass analyzer. Initial raw data analysis took place in Agilent MassHunter software immediately post data acquisition.
Raw data analysis of the intact protein was exclusively a deconvolution of the multiple charge states of each protein in solution using a maximum entropy deconvolution provided in Mass Hunter. To minimize complexity, only the data over limited mass ranges were considered for analysis, with a minimum of one Dalton mass step intervals. The heights of all masses identified during raw data analysis were exported to be further analyzed in Spotfire® data analysis software.
Final data analysis was a multistep process in the Spotfire® data analysis software package. Briefly, each protein mass was calculated as a percent of the total signal of that sample, that percentage was normalized to the percentage of signal of the protein in the absence of reactive compounds. Those normalized signals were reported as normalized percent of control (POC). […] Key: N.D. is not determined.

KRas G12C [2] = biological target: T2, KRas G12C (Homo sapiens, UniProt P01116, G12C); test: Cellular inhibition of KRas G12C measured by Phospho-ERK in NCI-11358 cells; type: cell-based; conditions: NCI-11358 cells (ATCC CRL-5807), 3 hours; read-out: Inhibition (IC50, pERK (Thr202/Tyr204) signal normalized with GAPDH)
T2 construct: NCI-11358 cells (ATCC CRL-5807) express KRas G12C; host or cells: NCI-H358
Experimental: The cellular inhibition of KRAs G12C by exemplary compounds of the present invention was determined by measuring the amount of a downstream marker of KRas activity, phosphorylated ERK (“Phospho-ERK”).
NCI-11358 cells (ATCC CRL-5807) express KRas G12C and were grown in RPMI medium supplemented with 10% fetal bovine serum, penicillin/streptomycin and 10 mM HEPES. Cells were plated in poly-D-Lysine coated 96-well plates at a concentration of 50,000 cells/well and allowed to attach for 8-12 hours. Diluted compounds were then added at a final concentration of 0.5% DMSO. After 3 hours, the medium was removed, 150 μL of 4% formaldehyde was added and the plates were incubated for 20 minutes. The plates were washed with PBS, and permeabilized using 150 μL of ice cold 100% methanol for 10 minutes. Non-specific antibody binding to the plates was blocked using 100 μL Licor Blocking Buffer (Li-Cor Biotechnology, Lincoln NE) for 1 hour at room temperature. Positive control samples and samples lacking cells were parallel processed with test samples as standards.
The amount Phospho-ERK was determined using an antibody specific for the phosphorylated form of ERK and compared to the amount of GAPDH. Primary antibodies used for detection were added as follows: Phospho-ERK (Cell Signaling cs9101) diluted 1:500 and GAPDH (Millipore MAB374) diluted 1:5000 in Licor block+0.05% Tween 20. The plates were incubated for 2 hours at room temperature. The plates were washed with PBS+0.05% Tween 20.
Secondary antibodies used to visualize primary antibodies were added as follows: Anti-rabbit-680 diluted 1:1000 and Anti-mouse-800 diluted 1:1000 in Licor Block+0.05% Tween 20 and incubated for 1 hour at room temperature. The plates were washed with PBS+0.05% Tween 20. A 100 μL aliquot of PBS was added to each well and the plates were read on a LICOR AERIUS plate reader.
The pERK (Thr202/Tyr204) signal was normalized with the GAPDH signal and percent of DMSO control values were calculated. IC50 values were generated using a 4 parameter fit of the dose response curve. Key: “A”: ≤1 μM, “B”>1 μM and N.D.=not determined.

| POC (normalized percent of control, covalent modification of KRas G12C) (KRas G12C [1]) | IC50 (KRas G12C [2]) | POC (normalized percent of control, covalent modification of KRas G12C) (KRas G12C [1]; 5 µM) | SMILES |
| --- | --- | --- | --- |
| 93% of control | ≤ 1000 nM | – | C=CC(=O)N1CC(F)(CN2C(=O)COc3cc(-c4cc(O)cc5ccccc45)c(Cl)cc32)C1 [Example 13, 4-((1-acryloyl-3-fluoroazetidin-3-yl)methyl)-6-chloro-7-(3-hydroxynaphthalen-1-yl)-2H-benzo[b][1,4]oxazin-3(4H)-one] |
| 97% of control | ≤ 1000 nM | – | C=CC(=O)N1CC(CN2C(=O)C(CCCN3CCCC3)Oc3cc(-c4cc(O)cc5ccccc45)c(Cl)cc32)C1 (stereo not shown) [Example 22, 4-((1-acryloylazetidin-3-yl)methyl)-6-chloro-7-(3-hydroxynaphthalen-1-yl)-2-(3-(pyrrolidin-1-yl)propyl)-2H-benzo[b][1,4]oxazin-3(4H)-one 2,2,2-trifluoroacetate] |
| – | > 1000 nM | 53% of control | C=CC(=O)N1CC(CN2C(=O)COc3cc(-c4c(C)ccc5[nH]ncc45)c(Cl)cc32)C1 (single isomer, unassigned) [Example 10] |
| 104% of control | ≤ 1000 nM | – | C=CC(=O)N1CC(CN2C(=O)C(CN3CCCC3)Oc3cc(-c4cc(O)cc5ccccc45)c(Cl)cc32)C1 (stereo not shown) [Example 4, 4-((1-acryloylazetidin-3-yl)methyl)-6-chloro-7-(3-hydroxynaphthalen-1-yl)-2-(pyrrolidin-1-ylmethyl)-2H-benzo[b][1,4]oxazin-3(4H)-one] |
| 88% of control | ≤ 1000 nM | – | C=CC(=O)N1CC(CN2C(=O)COc3cc(-c4cc(O)cc5ccccc45)c(Br)cc32)C1 [Example 31, 4-((1-acryloylazetidin-3-yl)methyl)-6-bromo-7-(3-hydroxynaphthalen-1-yl)-2H-benzo[b][1,4]oxazin-3(4H)-one] |
| 90% of control | > 1000 nM | – | C=CC(=O)N1CC(CN2C(=O)COc3cc(-c4cccc5ccccc45)c(Cl)cc32)C1 [Example 21, 4-((1-acryloylazetidin-3-yl)methyl)-6-chloro-7-(naphthalen-1-yl)-2H-benzo[b][1,4]oxazin-3(4H)-one] |
| 93% of control | ≤ 1000 nM | – | C=CC(=O)N1CC(CN2C(=O)C(CCCN3CCOCC3)Oc3cc(-c4cc(O)cc5ccccc45)c(Cl)cc32)C1 (stereo not shown) [Example 25, 4-((1-acryloylazetidin-3-yl)methyl)-6-chloro-7-(3-hydroxynaphthalen-1-yl)-2-(3-morpholinopropyl)-2H-benzo[b][1,4]oxazin-3(4H)-one 2,2,2-trifluoroacetate] |
| 97% of control | > 1000 nM | – | C=CC(=O)N1CC(CN2C(=O)COc3cc(-c4c(C)ccc5[nH]cnc45)c(Cl)cc32)C1 [Example 15, 4-((1-acryloylazetidin-3-yl)methyl)-6-chloro-7-(5-methyl-1H-benzo[d]imidazol-4-yl)-2H-benzo[b][1,4]oxazin-3(4H)-one trifluoroacetate salt] |
| 86% of control | > 1000 nM | – | C=CC(=O)N1CC(CN2C(=O)COc3c2ccc(-c2cc(O)cc4ccccc24)c3F)C1 [Example 6, 4-((1-acryloylazetidin-3-yl)methyl)-8-fluoro-7-(3-hydroxynaphthalen-1-yl)-2H-benzo[b][1,4]oxazin-3(4H)-one] |
| 93% of control | ≤ 1000 nM | – | C=CC(=O)N1CC(CN2C(=O)[C@H](CCN3CCOCC3)Oc3cc(-c4cc(O)cc5ccccc45)c(Cl)cc32)C1 [Example 34, (S)-4-((1-acryloylazetidin-3-yl)methyl)-6-chloro-7-(3-hydroxynaphthalen-1-yl)-2-(2-morpholinoethyl)-2H-benzo[b][1,4]oxazin-3(4H)-one] |
| 99% of control | ≤ 1000 nM | – | C=CC(=O)N1CC(CN2C(=O)C(CC3CCN(C)CC3)Oc3cc(-c4cc(O)cc5ccccc45)c(Cl)cc32)C1 (stereo not shown) [Example 20, 4-((1-acryloylazetidin-3-yl)methyl)-6-chloro-7-(3-hydroxynaphthalen-1-yl)-2-((1-methylpiperidin-4-yl)methyl)-2H-benzo[b][1,4]oxazin-3(4H)-one] |
| 93% of control | ≤ 1000 nM | – | C=CC(=O)N1CC(CN2C(=O)C(CN3CC[C@@H](OC)C3)Oc3cc(-c4cc(O)cc5ccccc45)c(Cl)cc32)C1 (stereo partly drawn) [Example 28, 4-((1-acryloylazetidin-3-yl)methyl)-6-chloro-7-(3-hydroxynaphthalen-1-yl)-2-(((R)-3-methoxypyrrolidin-1-yl)methyl)-2H-benzo[b][1,4]oxazin-3(4H)-one] |
| 90% of control | ≤ 1000 nM | – | C=CC(=O)N1CC(CN2C(=O)[C@H](CCN(C)C)Oc3cc(-c4cc(O)cc5ccccc45)c(Cl)cc32)C1 [Example 26, (S)-4-((1-acryloylazetidin-3-yl)methyl)-6-chloro-2-(2-(dimethylamino)ethyl)-7-(3-hydroxynaphthalen-1-yl)-2H-benzo[b][1,4]oxazin-3(4H)-one] |
| 34% of control | > 1000 nM | – | C=CC(=O)N1CC(C(C)N2C(=O)COc3cc(-c4cc(O)cc5ccccc45)c(Cl)cc32)C1 (stereo not shown) [Example 23, 4-(1-(1-acryloylazetidin-3-yl)ethyl)-6-chloro-7-(3-hydroxynaphthalen-1-yl)-2H-benzo[b][1,4]oxazin-3(4H)-one] |
| 94% of control | > 1000 nM | – | C=CC(=O)N1CC(CN2C(=O)COc3cc(-c4cc(O)cc5ccccc45)ccc32)C1 [Example 12, 4-((1-acryloylazetidin-3-yl)methyl)-7-(3-hydroxynaphthalen-1-yl)-2H-benzo[b][1,4]oxazin-3(4H)-one] |
| – | ≤ 1000 nM | 86% of control | C=CC(=O)N1CC(CN2C(=O)[C@H](CCN(C)C)Oc3cc(-c4c(C)ccc5[nH]ncc45)c(Cl)cc32)C1 (single isomer, unassigned) [Example 35] |
| 72% of control | > 1000 nM | – | C=CC(=O)N1CC(CN2C(=O)COc3cc(-c4[nH]nc(C)c4C)c(Cl)cc32)C1 [Example 38, 6-chloro-7-(3,4-dimethyl-1H-pyrazol-5-yl)-4-[(1-prop-2-enoylazetidin-3-yl)methyl]-1,4-benzoxazin-3-one] |
